pIC50: −log10 of the molar value.
Assays:
[1] = target: Phosphatidylinositol 3-kinase catalytic subunit type 3 (Homo sapiens, UniProt Q8NEB9); assay: Inhibition of VPS34 (unknown origin)
[2] = Inhibition of starvation induced autophagy in human MCF7 cells expressing eGFP-LC3; assay type: functional, cell-based
[3] = Inhibition of rapamycin induced autophagy in human MCF7 cells expressing eGFP-LC3; assay type: functional, cell-based

Sequence of Phosphatidylinositol 3-kinase catalytic subunit type 3 (Q8NEB9 whole entry): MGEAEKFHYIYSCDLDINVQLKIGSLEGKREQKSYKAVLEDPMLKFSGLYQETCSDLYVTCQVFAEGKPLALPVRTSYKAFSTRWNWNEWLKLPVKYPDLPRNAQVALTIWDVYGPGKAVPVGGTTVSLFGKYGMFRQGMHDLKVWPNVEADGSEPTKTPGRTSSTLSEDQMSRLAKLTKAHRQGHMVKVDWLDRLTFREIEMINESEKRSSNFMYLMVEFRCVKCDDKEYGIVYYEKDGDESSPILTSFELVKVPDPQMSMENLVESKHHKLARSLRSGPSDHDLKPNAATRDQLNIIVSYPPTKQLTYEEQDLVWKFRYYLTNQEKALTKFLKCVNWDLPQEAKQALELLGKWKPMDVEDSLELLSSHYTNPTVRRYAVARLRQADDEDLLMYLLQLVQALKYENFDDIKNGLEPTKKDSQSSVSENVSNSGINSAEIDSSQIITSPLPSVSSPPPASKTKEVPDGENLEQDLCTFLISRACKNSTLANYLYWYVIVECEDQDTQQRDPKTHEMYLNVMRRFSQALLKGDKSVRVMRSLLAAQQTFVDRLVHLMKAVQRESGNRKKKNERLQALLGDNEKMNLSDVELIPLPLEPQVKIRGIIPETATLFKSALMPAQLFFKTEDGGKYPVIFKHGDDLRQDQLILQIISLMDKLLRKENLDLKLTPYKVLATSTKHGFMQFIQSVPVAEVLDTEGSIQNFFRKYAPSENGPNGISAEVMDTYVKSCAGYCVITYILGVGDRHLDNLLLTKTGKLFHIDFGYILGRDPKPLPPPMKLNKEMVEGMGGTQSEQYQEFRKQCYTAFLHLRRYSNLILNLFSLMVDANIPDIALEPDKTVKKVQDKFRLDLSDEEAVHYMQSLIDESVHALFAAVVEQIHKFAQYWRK

pIC50 [1] | pIC50 [2] | pIC50 [3] | SMILES
5.34 | – | – | COC(=O)c1coc2c(O)c3c(c(C)c12)C=C[C@]1(C)C(=O)CC[C@@H]31
7.77 | – | – | COC[C@H]1OC(=O)c2coc3c2[C@@]1(C)C1=C(C3=O)[C@@H]2CCC(=O)[C@@]2(C)CC1
≤ 6.30 | – | – | COC[C@H]1OC(=O)c2c(C)oc3c2[C@@]1(C)C1=C(C3=O)[C@@H]2CCC(=O)[C@@]2(C)C[C@H]1OC(C)=O
7.10 | – | – | CCN(/C=C1\C(=O)O[C@H](COC)[C@@]2(C)C1=C(O)C(=O)C1=C2[C@H](OC(C)=O)C[C@]2(C)C(=O)CC[C@@H]12)CC
6.57 | – | – | COC[C@H]1OC(=O)C2=CCOC3=C2[C@@]1(C)C1=C(C3=O)[C@@H]2CCC(=O)[C@@]2(C)C[C@H]1OC(C)=O
6.84 | 6.41 | – | Cc1cc(Nc2cc(N3CCN(C)CC3)nc(Oc3ccc([N+](=O)[O-])cc3)n2)n[nH]1
≤ 6.30 | – | – | COC[C@H]1OC(=O)C23CC2COC2=C3[C@@]1(C)C1=C(C2=O)[C@@H]2CCC(=O)[C@@]2(C)C[C@H]1OC(C)=O (some centres undefined)
– | 7.05 | 7.40 | Cc1cc(Nc2cc(Cl)nc(Oc3ccc([N+](=O)[O-])cc3)n2)n[nH]1
– | 6.85 | – | O=C(C1CC1)N1CCc2cc(Br)c(S(=O)(=O)Nc3ccc(Cl)c(C(F)(F)F)c3)cc21
≤ 6.30 | – | – | CN/C=C1\C(=O)O[C@H](COC)[C@@]2(C)C1=C(O)C(=O)C1=C2[C@H](OC(C)=O)C[C@]2(C)C(=O)CC[C@@H]12
6.96 | 6.42 | 6.55 | Clc1cc(Nc2cc[nH]n2)nc(OCc2ccncc2)n1
6.20 | 5.85 | 5.70 | CC(C)(C)c1cc(Nc2cc(Cl)nc(Oc3ccc([N+](=O)[O-])cc3)n2)n[nH]1
– | 5.35 | – | O=C(CC1CC1)N1CCc2cc(Br)c(S(=O)(=O)Nc3ccc(Cl)c(C(F)(F)F)c3)cc21
6.92 | 6.64 | 6.80 | Cc1cc(Nc2cc(N3CCOCC3)nc(Oc3ccc([N+](=O)[O-])cc3)n2)n[nH]1
– | 5.52 | – | CC(C)C(=O)N1CCc2cc(Br)c(S(=O)(=O)Nc3ccc(Cl)c(C(F)(F)F)c3)cc21
7.11 | – | – | COC[C@H]1OC(=O)c2coc3c2[C@@]1(C)C1=C(C3=O)[C@@H]2C[C@@H](Br)C(OC(C)=O)[C@@]2(C)C[C@H]1OC(C)=O (some centres undefined)
– | 5.18 | – | O=C(CC1CC1)N1CCc2ccc(S(=O)(=O)Nc3ccc(Cl)c(C(F)(F)F)c3)cc21
– | 5.85 | – | O=C(C1CC1)N1CCc2cc(Br)c(S(=O)(=O)Nc3cc(C(F)(F)F)ccc3F)cc21
– | 5.62 | – | O=C(C1CC1)N1CCc2cc(Br)c(S(=O)(=O)Nc3cc(Cl)ccc3C(F)(F)F)cc21
6.55 | 6.35 | 6.55 | Cc1cc(Nc2cc(N(C)C)nc(Oc3ccc([N+](=O)[O-])cc3)n2)n[nH]1

pIC50 [1] | pIC50 [2] | pIC50 [3] | SMILES
– | 5.48 | – | O=C(C1CCC1)N1CCc2cc(Br)c(S(=O)(=O)Nc3ccc(Cl)c(C(F)(F)F)c3)cc21
6.67 | 6.70 | 6.33 | Cc1cc(Nc2cc(Cl)nc(OCc3ccc([N+](=O)[O-])cc3)n2)n[nH]1
7.44 | 6.89 | 7.00 | O=[N+]([O-])c1ccc(Oc2nc(Cl)cc(Nc3cc(C4CC4)[nH]n3)n2)cc1
7.64 | 7.15 | 7.40 | Cc1cc(Nc2cc(C)[nH]n2)nc(Oc2ccc([N+](=O)[O-])cc2)n1
6.82 | – | – | COC[C@H]1OC(=O)c2coc3c2[C@@]1(C)C1=C(C3=O)[C@@H]2C[C@@H](O)C(OC(C)=O)[C@@]2(C)C[C@H]1OC(C)=O (some centres undefined)
– | 5.96 | – | O=C(C1CC1)N1CCc2cc(Br)c(S(=O)(=O)Nc3cc(C(F)(F)F)ccc3Cl)cc21
7.70 | 6.77 | 6.92 | Cc1cc(Nc2cc(Cl)nc(Oc3ccc([N+](=O)[O-])cc3)n2)no1
– | 6.09 | – | Cc1ccc(NS(=O)(=O)c2cc3c(cc2Br)CCN3C(=O)C2CC2)cc1C(F)(F)F
6.51 | 6.47 | 6.36 | Cc1cc(Nc2cc(C(F)(F)F)nc(Nc3ccc([N+](=O)[O-])cc3)n2)n[nH]1
6.51 | – | – | COC[C@H]1OC(=O)c2coc3c2[C@@]1(C)C1=C(C3=O)[C@@H]2C[C@@H](OC(C)=O)C(OC(C)=O)[C@@]2(C)C[C@H]1OC(C)=O (some centres undefined)
– | 5.67 | – | O=[N+]([O-])c1ccc(Oc2nc(Cl)cc(Nc3ccccc3)n2)cc1
7.31 | 6.89 | 7.05 | N#Cc1ccc(Oc2nc(Cl)cc(Nc3cc[nH]n3)n2)cc1
7.23 | – | – | COC[C@H]1OC(=O)c2coc3c2[C@@]1(C)C1=C(C3=O)[C@@H]2CCC(OC(C)=O)[C@@]2(C)C[C@H]1OC(C)=O (some centres undefined)
≤ 6.30 | – | – | CCN/C=C1\C(=O)O[C@H](COC)[C@@]2(C)C1=C(O)C(=O)C1=C2[C@H](OC(C)=O)C[C@]2(C)C(=O)CC[C@@H]12
7.21 | 6.35 | 6.38 | NS(=O)(=O)c1ccc(Oc2nc(Cl)cc(Nc3cc[nH]n3)n2)cc1
≤ 6.30 | – | – | COC[C@H]1OC(=O)/C(=C\N)C2=C(O)C(=O)C3=C([C@H](OC(C)=O)C[C@]4(C)C(=O)CC[C@@H]34)[C@]21C
7.11 | 6.72 | 7.15 | Cc1cc(Nc2cc(C(F)(F)F)nc(Oc3ccc([N+](=O)[O-])cc3)n2)n[nH]1
≤ 6.30 | – | – | CCCN/C=C1\C(=O)O[C@H](COC)[C@@]2(C)C1=C(O)C(=O)C1=C2[C@H](OC(C)=O)C[C@]2(C)C(=O)CC[C@@H]12
7.28 | – | – | CCCCN/C=C1\C(=O)O[C@H](COC)[C@@]2(C)C1=C(O)C(=O)C1=C2[C@H](OC(C)=O)C[C@]2(C)C(=O)CC[C@@H]12
– | 6.25 | – | O=C(C1CC1)N1CCc2cc(Br)c(S(=O)(=O)Nc3cccc(C(F)(F)F)c3)cc21

SMILES | pIC50 [1] | pIC50 [2] | pIC50 [3]
COC[C@H]1OC(=O)c2coc3c2[C@@]1(C)C1=CC[C@]2(C)C(=O)CC[C@H]2C1C3=O (some centres undefined) | 7.27 | – | –
COC[C@H]1OC(=O)c2coc3c2[C@@]1(C)C1=C(C3=O)[C@@H]2CC[C@H](O)[C@@]2(C)C[C@H]1OC(C)=O | 9.30 | – | –
COC[C@H]1OC(=O)c2coc3c2[C@@]1(C)C1=C(C3=O)[C@@H]2CCC(=O)[C@@]2(C)C[C@H]1OC(C)=O [WORTMANNIN] | 8.38 | – | –

Reference: ChEMBL document CHEMBL5247623, “The SAR and action mechanisms of autophagy inhibitors that eliminate drug resistance” (Eur J Med Chem, 2022)
